Results from patent publication US6593342B1, “Pharmaceutical compositions comprising 2-quinolones” (Laboratoire L. Lafon, priority 1998, dated 2003).

How the values were obtained:
MCF7 = experiment: Clonogenic test (soft agar colony growth), MCF7; type: cell-based, human; details: 21 days, control = 100%, mean ± SEM
Excerpt: 1—Interaction (Stimulation or Inhibition of Proliferation) With the Generation of Clonogenic Cells (Clonogenic Test)
The test used is that described by Hamburger et al. (Science, 1977; 197, 461-463) and Salmon et al. (New England J. Med., 298, 1321-1327). A cell is considered clonogenic if it has the capacity to proliferate and to give rise to a cell colony. “Human tumor stem cells” are the cells which are the source of the neoplastic cells which constitute a given tumor. These tumor stem cells are responsible for the relapse processes which may be observed after surgical resection of primary tumors and are also responsible for the formation of metastases. In a tumor or a tumor cell line, these clonogenic stem cells differ from the other cells of the tumor or from the neoplastic cell line under consideration in that they conserve their capacity to proliferate in the absence of any solid support.
In this test, the tumor cells are cultured on a semi-solid support consisting of agar. […] In a tumor cell population, cultured on such a support, it is these clonogenic cells (associated with an unlimited number of cell divisions and whose proliferation is referred to by M. I. Dawson as “anchorage-independent [clonal] growth”) which are capable of growing. The percentage of these clonogenic cells in a tumor or a cell line ranges between 0.1% and 0.001%.
The influence of the compounds of formulae (I) and (Ia) on the growth of the cell colonies obtained by culturing, for example, the mammalian tumor lines MCF7 and MXT and the colorectal line HT-29 on the semi-liquid culture medium known as “soft agar” was measured. On such a medium, only the clonogenic cells referred to by M. I. Dawson as “anchorage-independent (clonal) cells” survive and grow. The growth of these cells in such a “non-adherent” mode bears witness to their degree of tumorigenicity. The inhibition of the growth of the size of a tumor in which a larger number of clonogenic cells has developed then becomes the evidence of reinforced cytotoxic activity.
Conversely, this test can also reveal that a compound is capable of inhibiting the generation/proliferation of clonogenic cells, thus making the tumor less able to grow and thus reducing the population of tumor cells.
The tumor cell lines studied are maintained in culture in 25 cm^2 falcon dishes. They are then trypsinized and the cells are fully dissociated from each other. The percentage of live cells is determined after staining with trypan blue. A cell suspension at a concentration of from 5·10^4 to 15·10^4 cells/ml (depending on the cell type under consideration) is prepared in a 0.3% agar solution. Next, 200 μl of this suspension are inoculated in Petri dishes 35 mm in diameter, in which are placed 3 ml of a base layer consisting of a 0.5% agar solution. The 200 μl of cell suspension are in turn covered with 1.8 ml of an upper layer consisting of a 0.3% agar solution. The dishes are then placed in an incubator at 37° C., 5% CO2 and 70% humidity until the treatment. This treatment is carried out about 1 to 2 hours after the inoculation. The test compounds are prepared at a concentration 100 times greater than the desired concentration and 50 μl of these treating solutions are placed over the upper layer of agar in the corresponding dishes. In the present study, the final concentration of the test products is 10^−5, 10^−7 and 10^−9 M. The dishes are then kept in an incubator for 21 days. On the 21st day the dishes are treated by depositing on the upper layer 100 μl of a 1 mg/ml solution of MTT (3-(4,5-dimethylthiazol-2-yl)-2,5-diphenyltetrazolinium bromide prepared with RPMI 1640 medium) for 3 h at 37° C. After this period, the cell colonies are fixed by adding 2 ml of formalin per dish. After fixing for 24 hours, the formalin is evaporated off and the number of stained cell colonies, thus consisting of metabolically active cells, and whose surface area is greater than 100 μm^2, is determined using an inverted microscope. […]

T24 = experiment: MTT test, T24; type: cell-based; details: Homo sapiens, T-24, 10^−5 M, 72 hours, control = 100%, mean ± SEM, read-out: average optical density (MTT), percentage relative to control
Method in brief: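 Human bladder cancer cells grown in MEM/HEPES with 5% FCS were exposed for 72 h at 37 °C to compounds at 10^−5 to 10^−10 M, then to 1 mg/ml MTT for 3 h. Formazan dissolved in DMSO was read at 570 nm against 630 nm and expressed as % of solvent-control optical density.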

PC-3 = experiment: MTT test, PC-3; type: cell-based; details: Homo sapiens, 10^−5 M, 72 hours, control = 100%, mean ± SEM, read-out: average optical density (MTT), percentage relative to control
Method in brief: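 Cells seeded 24 h, then exposed to compounds at 10^−5 to 10^−10 M for 72 h at 37 °C in MEM with 5% FCS. MTT (1 mg/ml) added 3 h; formazan dissolved in DMSO, absorbance 570 nm with 630 nm background; optical density expressed as percent of solvent control.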

SMILES | average number of clones of clonogenic cells, percentage relative to control (MCF7; 10^−5 M) | average number of clones of clonogenic cells, percentage relative to control (MCF7; 10^−7 M) | average number of clones of clonogenic cells, percentage relative to control (MCF7; 10^−9 M) | viability at 10 µM (T24) | viability at 10 µM (PC-3)
COc1ccc(-c2cc3c(OC)cc(OC)cc3[nH]c2=O)cc1 [CRL8246, 5,7-Dimethoxy-3-(4-methoxyphenyl)-1,2-dihydro-2-quinolinone] | 126.8 ± 9.9% | 145.7 ± 8.9% | 139.1 ± 6.6% | 109 ± 3.5% | 122 ± 1.7%
COc1ccc(-c2cc3c(OC)cc(OC)cc3n(CCC#N)c2=O)cc1 [CRL8247, 3-[5,7-Dimethoxy-3-(4-methoxyphenyl)-2-oxo-1,2-dihydro-1-quinolinyl]propanenitrile] | 51.5 ± 2.8% | 81.9 ± 1.2% | 98.3 ± 4.2% | 77.8 ± 2.7% | 70.5 ± 4.6%
COc1ccc(-c2cc3c(OC)cc(OC)cc3n(CCc3nnn[nH]3)c2=O)cc1 [CRL8256, 1-[2-(1H-1,2,3,4-Tetrazol-5-yl)ethyl]-5,7-dimethoxy-3-(4-methoxyphenyl)-1,2-dihydro-2-quinolinone] | 51.6 ± 3.7% | 83.8 ± 3.4% | 97.9 ± 5.6% | 78.2 ± 2.6% | 86 ± 2.3%
CCN(CC)C(=O)CCn1c(=O)c(-c2ccc(OC)cc2)cc2c(OC)cc(OC)cc21 [CRL8283, N,N-Diethyl-3-[5,7-dimethoxy-3-(4-methoxy-phenyl)-2-oxo-1,2-dihydro-1-quinolinyl]propanamide] | 56.5 ± 4.9% | 106.2 ± 4.8% | 97.4 ± 5.8% | 72.9 ± 0.9% | 92.4 ± 1.7%
CCN(CC)C(=O)Cn1c(=O)c(-c2ccc(OC)cc2)cc2c(OC)cc(OC)cc21 [CRL8315, N,N-Diethyl-2-[5,7-dimethoxy-3-(4-methoxy-phenyl)-2-oxo-1,2-dihydro-1-quinolinyl]acetamide] | 119.6 ± 5.6% | 127 ± 8.8% | 157.1 ± 12.2% | 89.6 ± 2.1% | 93.6 ± 3%
COc1ccc(-c2cc3c(OC)cc(OC)cc3n(CCN(C)C)c2=O)cc1 [CRL8316, 1-[2-(Dimethylamino)ethyl]-5,7-dimethoxy-3-(4-methoxyphenyl)-1,2-dihydro-2-quinolinone] | 23.2 ± 1.8% | 84 ± 5% | 83.4 ± 4.6% | 94 ± 3.2% | 84.8 ± 2.3%
